Results as given in article PMC3629922 (ACS medicinal chemistry letters, 2013).

What was measured:
D2 receptor = details: cited from earlier work
5-HT2B receptor [1] = target: T1, 5-HT2B receptor (Homo sapiens, UniProt P41595); assay: 5-HT2B functional assay using HTRF quantitation of IP1 accumulation; type: cell-based
5-HT2B receptor [2] = target: T1, 5-HT2B receptor; assay: 5-HT2B functional assay, intracellular calcium mobilization; type: cell-based; details: FLIPR Tetra, n = 5
D4 = target: T2, D4 (Homo sapiens, UniProt P21917); assay: D4 functional assay; type: cell-based; details: performed at the PDSP
T2 sequence (P21917 1-419): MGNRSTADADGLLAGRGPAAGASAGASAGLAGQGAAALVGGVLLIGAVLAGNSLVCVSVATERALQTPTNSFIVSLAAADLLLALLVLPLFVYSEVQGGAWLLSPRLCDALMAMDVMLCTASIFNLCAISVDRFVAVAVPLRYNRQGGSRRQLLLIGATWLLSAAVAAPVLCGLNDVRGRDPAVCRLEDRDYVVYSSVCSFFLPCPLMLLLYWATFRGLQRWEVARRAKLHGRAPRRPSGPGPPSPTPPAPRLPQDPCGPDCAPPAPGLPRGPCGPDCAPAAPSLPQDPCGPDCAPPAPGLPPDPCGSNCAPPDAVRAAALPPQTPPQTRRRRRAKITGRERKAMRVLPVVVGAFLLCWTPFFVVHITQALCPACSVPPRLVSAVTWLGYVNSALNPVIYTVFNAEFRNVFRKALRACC

5-HT2B receptor [3] = target: T1, 5-HT2B receptor; assay: 5-HT2B functional antagonism against serotonin; type: cell-based
D2 = D2 (Homo sapiens, UniProt P14416); assay: D2 functional assay; type: cell-based; details: performed at the PDSP
Sequence of D2 (P14416 whole entry): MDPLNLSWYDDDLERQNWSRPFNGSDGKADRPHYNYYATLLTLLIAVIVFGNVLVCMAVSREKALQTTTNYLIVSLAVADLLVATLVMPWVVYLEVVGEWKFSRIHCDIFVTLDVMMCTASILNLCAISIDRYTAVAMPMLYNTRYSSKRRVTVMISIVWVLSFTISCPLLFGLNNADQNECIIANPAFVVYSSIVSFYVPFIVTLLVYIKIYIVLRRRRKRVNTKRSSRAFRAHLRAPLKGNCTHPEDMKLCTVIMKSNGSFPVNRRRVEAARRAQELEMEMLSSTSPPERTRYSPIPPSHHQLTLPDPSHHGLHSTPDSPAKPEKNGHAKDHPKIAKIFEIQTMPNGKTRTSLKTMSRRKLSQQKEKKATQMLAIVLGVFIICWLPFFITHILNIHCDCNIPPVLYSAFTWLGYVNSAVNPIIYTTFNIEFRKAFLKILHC

5-HT2B receptor [4] = target: T1, 5-HT2B receptor; details: binding and functional assays; cited from earlier work
[5] = system: 5-HT2B receptors in porcine pulmonary arteries; details: cited from earlier work

T1 sequence (P41595 whole entry): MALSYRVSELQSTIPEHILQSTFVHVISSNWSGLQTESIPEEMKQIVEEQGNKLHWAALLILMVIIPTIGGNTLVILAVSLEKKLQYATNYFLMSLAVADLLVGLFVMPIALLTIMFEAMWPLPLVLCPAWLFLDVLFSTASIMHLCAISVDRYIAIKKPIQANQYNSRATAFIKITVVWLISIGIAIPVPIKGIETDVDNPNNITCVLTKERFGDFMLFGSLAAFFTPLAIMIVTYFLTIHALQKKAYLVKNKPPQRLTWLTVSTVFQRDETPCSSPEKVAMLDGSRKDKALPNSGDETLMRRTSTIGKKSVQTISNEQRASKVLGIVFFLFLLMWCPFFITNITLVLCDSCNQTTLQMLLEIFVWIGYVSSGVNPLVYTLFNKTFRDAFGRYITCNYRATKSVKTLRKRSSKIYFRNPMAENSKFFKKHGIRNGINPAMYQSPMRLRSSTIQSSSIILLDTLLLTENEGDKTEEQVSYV

SMILES	Functionality at the 5-HT2B receptor (IP1 assay) (5-HT2B receptor [1])	Functionality at the human 5-HT2B receptor (calcium mobilization assay) (5-HT2B receptor [2])	Antagonism against serotonin at the 5-HT2B receptor (5-HT2B receptor [3])	further results
CSC[C@@H]1C[C@@H]2c3cccc4[nH]cc(c34)C[C@H]2N(C)C1 [6-methylpergolide]				Functionality at the D2 receptor (D2 receptor): full agonists
C=CCN1C[C@H](C(=O)N(CCCN2CCOCC2)C(=O)NCC)C[C@@H]2c3cccc4[nH]cc(c34)C[C@H]21 [Compound 1]	full agonists			
CCNC(=O)N(CCCN(C)C)C(=O)[C@@H]1C[C@@H]2c3cccc4c3c(cn4C)C[C@H]2N(C)C1 [Compound 9, 1,6-Dimethylcabergoline]	no agonism	no agonism	potent antagonists	D4 functionality (D4): full D4 agonist; D2 functionality (D2): potent but partial D2 agonist
CN(C)CCCNC(=O)[C@@H]1C[C@@H]2c3cccc4c3c(cn4C)C[C@H]2N(C)C1 [Compound 14]	minimal to no agonism	minimal to no agonism	potent antagonists	
COC(OC)[C@@H]1C[C@@H]2c3cccc4c3c(cn4C)C[C@H]2N(C)C1 [Compound 15]	no agonism	no agonism	potent antagonists	
C=CCN1C[C@H](C(=O)N(CCCN(C)C)C(=O)NCC)C[C@@H]2c3cccc4[nH]cc(c34)C[C@H]21 [cabergoline, reference compound]	full agonists			
CC[C@@H](CO)NC(=O)[C@@H]1C=C2c3cccc4[nH]cc(c34)C[C@H]2N(C)C1 [methylergonovine]				Activity at the 5-HT2B receptor (5-HT2B receptor [4]): partial agonist
CC[C@@H](CO)NC(=O)[C@@H]1C=C2c3cccc4c3c(cn4C)C[C@H]2N(C)C1 [methysergide]				Activity at the 5-HT2B receptor (5-HT2B receptor [4]): significantly weaker activity
CCCN1C[C@H](CSC)C[C@@H]2c3cccc4[nH]cc(c34)C[C@H]21 [pergolide]				Functionality at 5-HT2B receptors in porcine pulmonary arteries [5]: functional agonist; Functionality at the D2 receptor (D2 receptor): full agonists
